Each structure is given as a SMILES string. Where only a bound is given, the exact number is not on record here.

Assay [1] addresses T1, Adenosine receptor A3 (Homo sapiens) (UniProt P0DMS8).
T1 sequence (whole entry): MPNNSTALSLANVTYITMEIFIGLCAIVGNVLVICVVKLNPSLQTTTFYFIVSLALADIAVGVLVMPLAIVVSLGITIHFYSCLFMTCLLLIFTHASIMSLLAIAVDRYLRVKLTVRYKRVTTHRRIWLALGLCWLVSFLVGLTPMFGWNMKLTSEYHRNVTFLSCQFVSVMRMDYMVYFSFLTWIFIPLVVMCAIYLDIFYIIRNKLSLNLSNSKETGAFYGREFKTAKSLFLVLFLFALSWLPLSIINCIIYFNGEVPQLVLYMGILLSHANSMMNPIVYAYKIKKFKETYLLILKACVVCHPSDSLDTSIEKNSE
Description: Binding affinity towards adenosine A3 receptor by measuring its ability to displace [125I]AB-MECA binding to membranes prepared from HEK293 cells. Format: cell membranes.

In assay [2] the target is Adenosine receptor A2a (Rattus norvegicus) (UniProt P30543). Description: Binding affinity towards adenosine A2A receptor by measuring its ability to displace [3H]-CGS- 21680 in rat striatal membranes at a concentration of 10e-4 M. Format: cell membranes. The conditions noted are these: Striatum, Membrane.
Adenosine receptor A2a (Rattus norvegicus), sequence (P30543 whole entry): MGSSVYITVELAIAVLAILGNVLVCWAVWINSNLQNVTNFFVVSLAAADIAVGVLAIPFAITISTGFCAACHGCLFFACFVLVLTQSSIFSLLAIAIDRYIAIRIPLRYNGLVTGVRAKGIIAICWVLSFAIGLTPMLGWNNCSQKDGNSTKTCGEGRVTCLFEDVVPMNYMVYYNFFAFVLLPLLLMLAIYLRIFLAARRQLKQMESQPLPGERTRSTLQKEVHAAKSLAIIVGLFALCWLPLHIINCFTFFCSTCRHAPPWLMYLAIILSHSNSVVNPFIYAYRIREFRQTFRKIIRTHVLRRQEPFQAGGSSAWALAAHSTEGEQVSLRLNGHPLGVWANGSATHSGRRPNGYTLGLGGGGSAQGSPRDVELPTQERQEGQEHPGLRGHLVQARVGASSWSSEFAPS
The test system of another assay is HEK293. Kind of assay: Selectivity for binding affinity towards A1 adenosine receptor in rat brain membrane and human A3 receptor expressed in HEK cells. The assay is classed as cell-based.
Assay [3] has as its target T2, Adenosine receptor A1 (Rattus norvegicus) (UniProt P25099).
T2 sequence (whole entry): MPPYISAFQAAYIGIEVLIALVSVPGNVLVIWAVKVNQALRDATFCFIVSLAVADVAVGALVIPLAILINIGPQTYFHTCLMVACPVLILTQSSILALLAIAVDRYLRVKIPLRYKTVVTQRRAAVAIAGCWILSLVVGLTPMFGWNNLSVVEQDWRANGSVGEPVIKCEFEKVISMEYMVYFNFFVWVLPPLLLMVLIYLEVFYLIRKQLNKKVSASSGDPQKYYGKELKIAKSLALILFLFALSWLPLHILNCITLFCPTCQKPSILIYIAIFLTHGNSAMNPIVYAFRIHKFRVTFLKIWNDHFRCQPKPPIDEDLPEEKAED
Kind of assay: Binding affinity towards adenosine A1 receptor by measuring its ability to displace [3H]-R-PIA in rat brain membranes at a concentration of 10e-4 M. Format: cell membranes.

Assay [4] addresses Adenosine receptor A2a (Rattus norvegicus) (UniProt P30543). Kind of assay: Binding affinity for adenosine A2A receptor as displacement of [3H]-CGS- 21680 from rat striatal membranes at 10e-4 M. Format: cell membranes. The conditions noted are these: Membrane.
The target in a further assay is T3, Adenosine receptor A1 (Rattus norvegicus, UniProt P25099).
T3 sequence (P25099 whole entry): T2 sequence (whole entry)
Kind of assay: Binding affinity for adenosine A1 receptor as displacement of [3H]R-PIA from rat brain membranes at 10e-4 M. The assay is classed as cell membranes, Membrane. On the technique in general: Loss of bound radioactivity is the signal in a displacement assay; it reports binding, not function.

For a further assay, the target named is Adenosine receptor A2a (Rattus norvegicus, UniProt P30543). Kind of assay: Binding affinity for adenosine A2A receptor as displacement of [3H]-CGS- 21680 from rat striatal membranes. Format: cell membranes, Membrane.
Adenosine receptor A2a, sequence (P30543 whole entry): as the sequence (P30543 whole entry) above
Assay [5] deals with T1, Adenosine receptor A3 (Homo sapiens). Description: Binding affinity for adenosine A3 receptor as displacement of [125I]AB-MECA from HEK293 cell membranes at 10e-4 M.

Turning to `CCOC(=O)C1=C(c2ccccc2)N=C(C)/C(=C(/O)OCC)C1C(OC)OC` (stereo not given), in assay [1], the Ki (commonly a dissociation constant, usually derived from enzyme kinetics or from competition with a known ligand) worked out at 15300 nM. Also, the inhibition (as a rule, the percentage by which the read-out fell short of the control) in assay [2] was less than 10%; in assay [3], 32%. The Ratio in the assay with HEK293 is more than 5.
In the case of `CCCOC(=O)c1c(-c2ccccc2)nc(CC)c(C(=O)SCC)c1CC`, the Ki in assay [1] was found to be 8.29 nM. Moreover, the inhibition in assay [2] was less than 10%; in assay [3], 7.77%. In addition, the Ratio in the assay on HEK293 worked out at 940.
The matching figures for `CCOC(=O)C1=C(c2ccccc2)N=C(C)/C(=C(/O)OCC)C1C=O` (stereo not given): 15600 nM, 32%, 26% and 6.
`CCS/C(O)=C1\C(C)=NC(c2ccccc2)=C(C(=O)OCc2ccccc2)C1CC` (stereo not given): the Ki in assay [1] amounted to 1650 nM. In addition, the Ratio in the assay on HEK293 is more than 50. The inhibition stood at 14.3% in assay [4] and 45% in assay [3].
`CCOC(=O)C1=C(c2ccccc2)N=C(C)/C(=C(/O)OCC)C1/C=C/c1ccccc1` (stereo not given) had an inhibition in assay [2] of 4.77%.
Take `CCOC(=O)C1=C(C)NC(C2CCCCC2)=C(C(=O)OCc2ccccc2)C1C#Cc1ccccc1` (stereo not given): the figures for the inhibition in assay [4] and in assay [3] were 20% and 22%, respectively.
For the compound `CCOC(=O)c1c(-c2ccccc2)nc(CC)c(C(=O)O)c1CC`, the affinity in assay [1] corresponds to a Ki of 1280 nM. For the same compound, the inhibition came to 7.09% in assay [2] and 4.25% in assay [3]. The Ratio with HEK293 came out at 3.3.
Compound `CCOC(=O)c1c(C)nc(C2CCC2)c(C(=O)OCc2ccccc2)c1C#Cc1ccccc1` had an inhibition in assay [3] of less than 10%.
As to `CCOC(=O)c1c(C)nc(-c2ccccc2)c(C(=O)OCC)c1C(OC)OC`, the affinity in assay [1], expressed as Ki, was 783 nM. Further, the inhibition in assay [2] is 2.88%; in assay [3], 1.95%. For the same compound, in the assay with HEK293, the Ratio turned out to be 2.5.
The compound `CNC(=O)[C@H]1O[C@@H](n2cnc3c(NCc4ccc(N)c(I)c4)ncnc32)[C@H](O)[C@@H]1O` registered a Ki on Adenosine receptor A1 of 3.4 nM.
In turn, `CCCSC(=O)c1c(CC)nc(-c2ccccc2)c(C(=O)OCC)c1CC` came in with an inhibition constant Ki in assay [1] of 15.9 nM. Besides, the figures for the inhibition in assay [2] and in assay [3] were 15.7% and 8.22%, respectively. Besides, the Ratio in the assay on HEK293 turned out to be 520.
In the same order, the values of `CCCc1c(C(=O)SCC)c(C)nc(-c2ccccc2)c1C(=O)OCC` are 194 nM, 7.53%, 29% and more than 700.
In turn, `CCOC(=O)c1c(-c2cccc(Cl)c2)nc(CC)c(C(=O)SCC)c1CC` registered a Ki in assay [1] of 13.4 nM. The results for the inhibition in assay [2] and in assay [3] were 8.91% and 8.2%, respectively. Besides, in the assay with HEK293, the Ratio turned out to be 610.
The compound `CCSC(=O)c1c(C)nc(-c2ccccc2)c(C(=O)Oc2ccccc2)c1CC` yielded a Ki in assay [1] of 2610 nM. Further, the results for the inhibition in assay [2] and in assay [3] were 12.8% and 20%, respectively. The Ratio with HEK293 is more than 40.
The matching figures for `CCOC(=O)c1c(C)nc(-c2ccccc2)c(C(=O)OCC)c1C=O`: 1980 nM, 2.56%, 9.56% and 4.8.
The matching figures for `CCOC(=O)c1c(-c2ccccc2)nc(C)c(C(=O)SCCOC)c1CC`: 165 nM, 7.98%, 36% and more than 500.
The matching figures for `CCCC1=NC(c2ccccc2)=C(C(=O)OCC)C(CC)/C1=C(\O)SCC` (stereo not given): 2090 nM, less than 10%, 26% and more than 20.
As for `CCO/C(O)=C1\C(C)=NC(c2ccccc2)=C(C(=O)OCc2ccccc2)C1C#Cc1ccccc1` (stereo not given), the inhibition in assay [2] is less than 10%.
Compound `CCOC(=O)c1c(C)nc(-c2ccccc2)c(C(=O)OCc2ccccc2)c1C#Cc1ccccc1` yielded a Ki on Adenosine receptor A2a of 43000 nM. In addition, the Ratio in the assay on HEK293 turned out to be 4.2. Moreover, the inhibition in assay [5] turned out to be 2.75%.
Take `CCOC(=O)C1=C(C)NC(C2CC2)=C(C(=O)OCc2ccccc2)C1C#Cc1ccccc1` (stereo not given): the inhibition in assay [4] is 10%; in assay [3], 22%.
The compound `CCOC(=O)c1c(C)nc(-c2ccccc2)c(C(=O)OCC)c1C` yielded an inhibition in assay [2] of 28.4%.
For the compound `CCOC(=O)C1=C(C)NC(C2CCCC2)=C(C(=O)OCc2ccccc2)C1C#Cc1ccccc1` (stereo not given), in the assay with HEK293, the Ratio stood at 340.
In assay [1], `CCCOC(=O)c1c(-c2ccccc2)nc(CC)c(C(=O)SCC)c1CCC` returned a Ki of 18.9 nM. Further, the inhibition in assay [2] is 2.05%; in assay [3] it was 15.6%. Further, the Ratio in the assay with HEK293 worked out at 830.
The matching figures for `CCOC(=O)c1c(CC)nc(-c2ccccc2)c(C(=O)OCC)c1C`: 121 nM, 13.4%, 10.3% and 85.
Compound `CCOC(=O)C1=C(c2ccccc2)N=C(C)/C(=C(/O)OCC)C1CC` (stereo not given) came in with a Ki at Adenosine receptor A2a of 21800 nM.
On to `CCCC1C(C(=O)OCC)=C(c2ccccc2)N=C(C)/C1=C(/O)SCC` (stereo not given), for which the inhibition in assay [4] turned out to be 29%; in assay [3] it was 48%.
In the same order, the values of `CCOC(=O)C1=C(C)NC(C2CCC2)=C(C(=O)OCc2ccccc2)C1C#Cc1ccccc1` (stereo not given) are 10% and 36%.
The matching figures for `CCOC(=O)C1=C(c2ccccc2)N=C(CC)/C(=C(/O)OCC)C1C` (stereo not given): less than 10% and 20%.
For `CCOC(=O)C1=C(c2ccccc2)N=C(C)/C(=C(/O)SCC)C1CC` (stereo not given), the figures for the inhibition in assay [2] and in assay [3] were 54.8% and 35.4%, respectively.
For the compound `CCOC(=O)C1=C(c2ccccc2)N=C(C)/C(=C(/O)SCCOC)C1CC` (stereo not given), in assay [1], the Ki is 4580 nM. Besides, the Ratio with HEK293 is more than 10. The inhibition in assay [4] worked out at 12.5%; in assay [3], 36%.
Compound `CCOC(=O)c1c(C2CCCC2)nc(CC)c(C(=O)SCC)c1CC` showed an inhibition constant Ki in assay [1] of 3380 nM. Moreover, the inhibition turned out to be 26.1% in assay [2] and 55.3% in assay [3]. The Ratio in the assay on HEK293 turned out to be 16.
The matching figures for `CCCc1nc(-c2ccccc2)c(C(=O)OCC)c(CC)c1C(=O)SCC`: 33.3 nM, 2.82%, 16.7% and 500.
The matching figures for `CCOC(=O)c1c(C)nc(-c2ccccc2)c(C(=O)OCC)c1CC`: 176 nM, 3.69%, 3.36% and 19.
In the same order, the values of `CCOC(=O)c1c(-c2ccccc2)nc(CC)c(C(=O)SCC)c1CC` are 20 nM, 6.13%, 41% and more than 3000.
In turn, `CCCCc1nc(-c2ccccc2)c(C(=O)OCC)c(CC)c1C(=O)SCC` showed a Ki in assay [1] of 35 nM. Moreover, the inhibition in assay [2] is less than 10%; in assay [3] it was 40.3%. The Ratio in the assay on HEK293 was 1200.
In the same order, the values of `CCOC(=O)c1c(-c2ccccc2)nc(C)c(C(=O)SCC)c1CC` are 143 nM, 14.9%, 14.8% and 340.
The matching figures for `CCOC(=O)c1c(-c2ccccc2)nc(CCOC)c(C(=O)SCC)c1CC`: 16.8 nM, 12.6%, 10.1% and 600.
The matching figures for `CCOC(=O)C1=C(c2ccccc2)N=C(CC)/C(=C(/O)SCC)C1CC` (stereo not given): 907 nM, 29.1%, 34% and more than 50.
With `CCCOC(=O)c1c(-c2cccc(Cl)c2)nc(CC)c(C(=O)SCCC)c1CC`, affinity in assay [1] was put at a Ki of 7.94 nM. The figures for the inhibition in assay [2] and in assay [3] were 24.1% and 41.4%, respectively. The Ratio in the assay on HEK293 is 5200.
The compound `CCCOC(=O)c1c(C)nc(-c2ccccc2)c(C(=O)OCC)c1C` gave a Ki in assay [1] of 215 nM. Besides, the results for the inhibition in assay [2] and in assay [3] were 24.5% and 5.05%, respectively. For the same compound, the Ratio in the assay with HEK293 came to 23.
Regarding `CCOC(=O)c1c(-c2ccccc2)nc(C2CCC2)c(C(=O)SCC)c1CC`, the Ki in assay [1] amounted to 145 nM. For the same compound, the inhibition was found to be 22% in assay [2] and 30% in assay [3]. Besides, the Ratio with HEK293 is more than 500.
Regarding `CCOC(=O)c1c(C)nc(C2CCCC2)c(C(=O)OCc2ccccc2)c1C#Cc1ccccc1`, in the assay with HEK293, the Ratio amounted to 15.
On to `CCSC(=O)c1c(CC)nc(-c2ccccc2)c(C(=O)OCCO)c1CC`, for which affinity in assay [1] was put at a Ki of 188 nM. The inhibition in assay [2] was found to be 10%; in assay [3], 17.4%. The Ratio with HEK293 turned out to be 93.

Values taken from ChEMBL document CHEMBL1131608, “Structure-activity relationships and molecular modeling of 3, 5-diacyl-2,4-dialkylpyridine derivatives as selective A3 adenosine receptor antagonists” (J Med Chem, 1998).
